{"source": "patent US7241732B2", "about": "“Compositions and methods involved in bone growth” (University of Rochester, priority 2001, dated 2007)", "key": {"[1]": {"test_system": "ROS 17/2.8 cells", "assay": "Apoptosis of ROS 17/2.8 cells on exposure to TRAP (morphology, alkaline phosphatase stain)", "type": "cell-based", "conditions": "0.1% DMSO, then TRAP 5 ug/mL", "text": "DMSO, at this low concentration, itself won't cause any toxic effect on cells but can scavenge most of reactive oxygen species. […] Therefore, the TRAP-induced cell apoptosis is not due to a reactive oxygen species effect."}, "[2]": {"test_system": "P3TP-Lux reporter in MG-63 cells", "assay": "P3TP-Lux Smad 2,3 reporter in osteoblast cell lines", "type": "cell-based, human", "text": "P3TPLux is a Smad 2, 3 sensitive reporter. […] Co-transfection of the cells with a dominant negative TGFβ type II receptor blocks all TRAP and TGFβ signaling. Each bar is the mean of at least four determinations±SEM. * p 0.05 and ** p 0.01 as compared to control. The data for MG-63 cells are shown. The data for the SaOS2 cells are the same (data not shown).\nThe data with the MG-63 cell is what is shown."}, "[3]": {"test_system": "isolated osteoblasts", "assay": "Osteoblast phenotypic markers (alkaline phosphatase, Runx2, OPG, collagen)", "type": "cell-based, rat", "conditions": "TRAP 10 μg/ml, TGFβ 2 ng/ml; percent of control, FIG. 14", "description": "The qualitative pattern of stimulation by TRAP and TGFβ for markers of osteoblast differentiation is similar. […] Alkaline phosphatase (Alk. Phos.) was measured in a direct biochemical assay. Runx2 and osteoprotegerin (OPG) were quantified in an ELISA assay using commercially available antibodies. Collagen was measured by determining the amount of collagenase-digestible protein present in pre-labeled osteoblasts (34). All data are expressed as a percent of the control, untreated cells. All data points are the mean±one SEM. * p 0.05. ** p 0.01.\nIsolated osteoblasts were prepared from neo-natal rat calvaria as previously described (Martinez D A, et al., J. Cellular Biochemistry 59: 246-257 (1995)). Alkaline phosphatase assays and standard Western analyses were performed as previously described (Ionescu A M. ET AL., Journal of Biological Chemistry. 276:11639-47 (2001)).\n(§1) After incubation, the plates were washed with PBS-Tween.\nOsteoblast differentiation at sites of bone remodeling is mediated by a number of regulatory factors. One of the key factors is TGFβ. In most systems, including the typically the disclosed system, TGFβ is known to be a potent enhancer of the osteoblast phenotype."}, "[4]": {"test_system": "D14 primary osteoblasts", "assay": "OPG sandwich ELISA", "type": "cell-based", "conditions": "following treatment", "description": "OPG is the deccoy receptor for the RNAKL and stop the osteoclastogenesis. RANKL and OPG has been proposed for the regulation of osteoclast differentiation function. Both OPG and RANKL can themselves also be regulated by TGF-β (MacDonald R G, Science 239:1134-7, (1988)). […] This lower the secretion amount of OPG the less the protection afforded from the osteoclast.\nas §1"}, "[5]": {"test_system": "TGFβ reporter construct (P3TPlux)", "assay": "P3TP lux TGFβ reporter in transfected osteoblasts", "type": "cell-based", "conditions": "FIG. 9", "description": "Note the difference in scales. N=4-6.\nFunctionality of TRIP for TGFβ signaling was determined by measuring the activation of a TGFβ promoter/reporter construct, P3TP Lux (see Experimental Design for a complete description of this construct).\nOsteoblasts, cultured at 30-40% confluence in 6-well plates, are transfected on day 2 after plating using the transfection reagent Superfect (Qiagen Santa Clarita, Calif.) according to the manufacturer's guidelines. Individual experiments are internally controlled for amount of total plasmid DNA, with equal amounts of p3TP-Lux reporter, control SV40-renilla plasmid for normalization of transfection efficiency, and target construct and/or vector control DNA for all co-transfection experiments. Following transfection, the cells are placed in media containing DMEM, Penicillin/Streptomycin, and 10% NuSerum IV. After 12 hours, they are incubated for 6 hours in serum-free media (containing DMEM, hyaluronidase 4 U/ml, Penicillin/Streptomycin, and supplemented with 10 pM triiodothyronine (Sigma, St. Louis, Mo.), 60 ng/ml insulin, and 1 mM cysteine (Sigma, St. Louis, Mo.)) plus the factor or cytokine of interest. Eighteen hours later, the cells are harvested and assayed for luciferase activity using the Promega dual luciferase assay system. Renilla luciferase values were used to normalize each sample for transfection efficiency."}, "[6]": {"test_system": "SW408 cells", "assay": "P3TP-Lux reporter in Smad4 deficient cells", "type": "cell-based", "text": "SW408 cells are deficient in Smad4, a requisite co-factor for Smad2 and 3 signaling. […] However, when the cells are transfected with both Smad4 and TRIP-1, restoration of Smad signaling can occur. All values are the mean±SEM. * p 0.05 and ** p 0.01 as compared to control."}, "[7]": {"target": "T1, TGFβRII, HIS-TRIP and Smad 2 (Homo sapiens, UniProt Q13347)", "T1 construct": "expressed in transfected cells; host or cells: 293T cells transfected with TGFβRII and His-TRIP-1; Smad 2 endogenous", "T1 sequence (Q13347 whole entry)": "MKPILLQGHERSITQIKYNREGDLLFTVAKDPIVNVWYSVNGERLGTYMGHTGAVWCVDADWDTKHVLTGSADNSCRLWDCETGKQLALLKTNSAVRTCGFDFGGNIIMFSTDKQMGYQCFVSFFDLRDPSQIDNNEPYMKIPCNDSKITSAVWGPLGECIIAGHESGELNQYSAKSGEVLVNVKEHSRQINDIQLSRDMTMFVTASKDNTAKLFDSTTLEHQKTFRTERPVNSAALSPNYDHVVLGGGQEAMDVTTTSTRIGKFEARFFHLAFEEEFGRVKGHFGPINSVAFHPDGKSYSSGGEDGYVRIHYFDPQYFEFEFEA", "T1 sequence (P37173 23-567 partner)": "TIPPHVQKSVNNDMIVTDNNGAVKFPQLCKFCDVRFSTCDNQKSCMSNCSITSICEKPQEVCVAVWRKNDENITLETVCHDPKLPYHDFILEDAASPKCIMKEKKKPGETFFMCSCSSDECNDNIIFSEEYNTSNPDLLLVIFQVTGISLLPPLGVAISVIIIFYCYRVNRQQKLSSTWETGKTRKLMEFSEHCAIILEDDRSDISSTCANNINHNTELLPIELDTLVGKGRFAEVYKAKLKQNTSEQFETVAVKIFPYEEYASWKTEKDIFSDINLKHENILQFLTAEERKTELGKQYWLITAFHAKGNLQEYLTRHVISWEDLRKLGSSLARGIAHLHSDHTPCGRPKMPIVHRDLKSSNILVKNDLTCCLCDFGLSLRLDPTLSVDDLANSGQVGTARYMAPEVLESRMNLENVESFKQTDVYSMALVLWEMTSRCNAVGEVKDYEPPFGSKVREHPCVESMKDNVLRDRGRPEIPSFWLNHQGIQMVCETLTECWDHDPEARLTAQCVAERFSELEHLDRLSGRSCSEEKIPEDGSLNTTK", "T1 sequence (Q15796 2-467 partner limits assumed)": "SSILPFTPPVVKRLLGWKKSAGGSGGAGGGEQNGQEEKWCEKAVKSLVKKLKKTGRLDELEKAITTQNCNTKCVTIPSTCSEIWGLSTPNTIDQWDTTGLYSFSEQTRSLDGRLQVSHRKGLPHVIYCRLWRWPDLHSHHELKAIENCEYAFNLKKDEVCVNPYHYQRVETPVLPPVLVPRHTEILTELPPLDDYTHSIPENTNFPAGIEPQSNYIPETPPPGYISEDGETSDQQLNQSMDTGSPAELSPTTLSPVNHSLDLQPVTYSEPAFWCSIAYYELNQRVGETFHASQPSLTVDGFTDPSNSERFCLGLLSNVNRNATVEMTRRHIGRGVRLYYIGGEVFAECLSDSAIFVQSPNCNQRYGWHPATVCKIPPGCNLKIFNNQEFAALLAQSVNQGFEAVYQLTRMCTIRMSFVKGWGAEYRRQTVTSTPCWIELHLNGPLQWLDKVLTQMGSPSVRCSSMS", "assay": "GST-TRAP pull-down of receptor complex from transfected 293T cells", "type": "binding", "conditions": "exogenous GST-TRAP 12 hours", "text": "293T cells were transfected with TGFβRII. Some of these cells were then co-transfected with a “His”-tagged TRIP-1 (His-TRIP-1). In lane A, in which both the receptor and TRIP-1 were present, but GST-TRAP was not added, no parts of the complex could be “pulled down” with glutathione coated beads. The same was true if His-TRIP-1 was not transfected into the cells. However, if the receptor, TRIP-1 and GST-TRAP were all present, a protein complex composed of the receptor, TRIP-1 and Smad 2 could be extracted with glutathione coated beads.\nGST-TRAP and GST-TRIP fusion proteins, and GST control protein were purified as instructed by the manufacturer (Amersham Pharmacia). Briefly, plasmids containing GST-fusion protein expressing cDNA were transformed into a BL21DE3)pLysS bacteria strain and selected for ampicillin and chloramphenicol resistant colonies. Selected colonies were grown in LB medium at 30° C. until OD600 reached 0.6 to 1. Then 0.1 mM IPTG was added to medium for 3 hours. Bacteria were lysed by B-PER (Pierce) with 1 mM PMSF. Lysed bacteria were spun down and the supernatants were collected. […]\nDetection of HIS-TRIP was performed with anti-HIS antibodies and detection of the TGFβRII and Smad 2 were performed with a commercially available antibodies. […] The beads were extensively washed and the proteins interacting with the beads were analyzed with Western analysis."}, "[8]": {"test_system": "rat calvarial osteoblasts after 14 days of culture", "assay": "Cleaved caspase 3 and cleaved PARP levels", "type": "cell-based", "conditions": "day 14 cells, FIGS. 24 and 25", "quoted_text": "Biochemical confirmation of the effect of TRAP on osteoblast apoptosis was obtained by assaying levels of caspase-3 and poly ADP-ribose polymerase (PARP) in these cells lines. […] Thus, another indicator of a cells progression through apoptosis is a measurement of its cleaved caspase 3 levels. Similarly, poly ADP-ribose polymerase is a substrate for active caspase 3 and increased levels of cleave PARP are indicative of an active caspase."}}}
{"molecule": "C[S+](C)[O-]", "note": "[DMSO]", "values": [{"measurement": "protection from apoptosis induced by TRAP", "setting": "[1]", "result": "did not protect cells from apoptosis induced by TRAP"}]}
{"molecule": "TGFβ", "values": [{"measurement": "P3TP-Lux activation with co-transfected dominant negative type II TGFβ receptor", "setting": "[2]", "result": "block both TGFβ and TRAP activation of the pathway"}, {"measurement": "upregulation of P3TP-Lux reporter gene", "setting": "[2]; TRAP 10 μg/ml, TGFβ 5 ng/ml, MG-63 shown, SaOS2 the same", "result": "strongly upregulate a reporter gene"}, {"measurement": "effect on alkaline phosphatase activity, Runx 2, OPG and collagen protein synthesis", "setting": "[3]", "result": "an increase in alkaline phosphatase activity, and an increase in Runx 2, osteoprotegerin (OPG) and collagen protein synthesis"}, {"measurement": "level of OPG", "setting": "[4]", "result": "less Osteoprotegrin (OPG) production"}, {"measurement": "activation of P3TP lux", "setting": "[5]", "result": "strongly activate P3TP lux"}, {"measurement": "activation of reporter gene in Smad4 deficient cells", "setting": "[6]", "result": "neither TGFβ nor TRAP could activate the reporter gene"}, {"measurement": "signaling after restoration of Smad4 and TRIP-1 protein", "setting": "[6]; cells transfected with Smad4 and TRIP-1", "result": "restores TGFβ and TRAP signaling"}]}
{"molecule": "GST-TRAP: recombinant fusion protein of GST and TRAP, non-glycosyl protein made in bacteria (protein, left off: a dimerising Fc or GST, recombinant fusion protein of GST and TRAP, non-glycosyl protein made in bacteria) ATPALRFVAVGDWGGVPNAPFHTAREMANAKEIARTVQILGADFILSLGDNFYFTGVQDINDKRFQETFEDVFSDRSLRKVPWYVLAGNHDHLGNVSAQIAYSKISKRWNFPSPFYRLHFKIPQTNVSVAIFMLDTVTLCGNSDDFLSQQPERPRDVKLARTQLSWLKKQLAAAREDYVLVAGHYPVWSIAEHGPTHCLVKQLRPLLATYGVTAYLCGHDHNLQYLQDENGVGYVLSGAGNFMDPSKRHQRKVPNGYLRFHYGTEDSLGGFAYVEISSKEMTVTYIEASGKSLFKTRLPRRARP", "values": [{"measurement": "proteins pulled down with glutathione beads", "setting": "[7]", "result": "the complex of the TGFβRII, HIS-TRIP and Smad 2 can be extracted and detected"}, {"measurement": "cleaved caspase 3 and cleaved PARP", "setting": "[8]", "result": "have the same effect on the cells"}]}
